This is an account of results in US9884063B2, “Amido-substituted azole compounds” (Bayer Pharma Aktiengesellschaft, priority 2014, dated 2018).

Experiment [1] has as its system wildtype Wnt signaling cascade. In words: HEK293 TOP Assay (Super TopFlash luciferase reporter, Wnt-3a stimulated). It counts as cell-based. The note with it: Homo sapiens, HEK293, 16 h. The gist of the method: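 Compounds (50 μM down to 15 nM, 3.16-fold steps, in CAFTY buffer pH 7.4, 2 mM Ca2+, 0.01% BSA) tested in parallel on TOP and FOP HEK293 reporter lines to define selective wildtype Wnt inhibition. Pathway driven by recombinant human Wnt-3a applied at 2500–5 ng/ml in two-fold dilutions.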
A general note: Reporter assays use an easily measured gene product as a stand-in for the process of interest.

The target of another experiment is T1, TNKS1 (Homo sapiens, UniProt O95271).
T1 sequence (O95271 1-1327): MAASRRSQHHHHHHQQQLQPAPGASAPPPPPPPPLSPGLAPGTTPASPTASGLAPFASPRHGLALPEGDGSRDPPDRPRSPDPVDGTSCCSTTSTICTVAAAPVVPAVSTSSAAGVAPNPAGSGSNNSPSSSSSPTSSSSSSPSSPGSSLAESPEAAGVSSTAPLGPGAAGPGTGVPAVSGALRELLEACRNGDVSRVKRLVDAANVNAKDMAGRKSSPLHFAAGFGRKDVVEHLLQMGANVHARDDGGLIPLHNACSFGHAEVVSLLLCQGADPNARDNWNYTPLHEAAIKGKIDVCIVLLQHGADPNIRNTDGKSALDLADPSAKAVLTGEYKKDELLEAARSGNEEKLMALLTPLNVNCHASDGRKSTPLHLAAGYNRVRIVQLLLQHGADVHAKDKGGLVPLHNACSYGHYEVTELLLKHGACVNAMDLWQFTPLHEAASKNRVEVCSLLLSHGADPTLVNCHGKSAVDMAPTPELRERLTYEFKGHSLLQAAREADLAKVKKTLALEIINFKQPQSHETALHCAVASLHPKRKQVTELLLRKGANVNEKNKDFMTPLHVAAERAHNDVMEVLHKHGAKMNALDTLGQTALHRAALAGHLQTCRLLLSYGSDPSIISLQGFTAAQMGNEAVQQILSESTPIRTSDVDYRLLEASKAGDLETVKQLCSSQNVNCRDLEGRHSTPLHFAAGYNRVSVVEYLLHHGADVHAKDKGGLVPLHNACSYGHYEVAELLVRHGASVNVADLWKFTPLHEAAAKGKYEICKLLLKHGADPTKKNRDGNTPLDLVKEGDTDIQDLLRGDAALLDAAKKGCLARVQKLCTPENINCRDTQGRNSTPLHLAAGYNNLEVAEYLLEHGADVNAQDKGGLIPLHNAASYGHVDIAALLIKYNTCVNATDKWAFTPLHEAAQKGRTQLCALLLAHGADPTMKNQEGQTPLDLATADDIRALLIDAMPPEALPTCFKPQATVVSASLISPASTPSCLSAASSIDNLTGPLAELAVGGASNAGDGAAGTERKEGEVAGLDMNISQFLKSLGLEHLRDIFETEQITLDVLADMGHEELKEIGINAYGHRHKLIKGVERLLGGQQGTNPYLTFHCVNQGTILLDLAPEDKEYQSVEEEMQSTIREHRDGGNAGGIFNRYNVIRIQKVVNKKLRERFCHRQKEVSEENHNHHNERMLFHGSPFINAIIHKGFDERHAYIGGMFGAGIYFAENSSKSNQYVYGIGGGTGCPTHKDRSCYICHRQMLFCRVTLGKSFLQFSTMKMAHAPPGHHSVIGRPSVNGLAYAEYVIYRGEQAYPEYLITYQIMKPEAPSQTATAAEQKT
In words: Modified TNKS1 Assay 2 (auto-parsylation, [3H]-NAD+ SPA). In kind it is biochemical. The note with it: 6 nM TNKS1, 96 well.

The mark [2] stands for this setting: HEK293 TOP reporter cell line, Wnt-3a at EC50, 16 hours incubation, compound dilution series 50 μM to 15 nM.

On to `O=C(Nc1ccc(NC(=O)c2nc[nH]c2C(=O)NCCN2CCCCC2)cc1OC(F)(F)F)c1ccc(F)cc1Cl` [Example 293, N^4-{4-[(2-chloro-4-fluorobenzoyl)amino]-3-(trifluoromethoxy)phenyl}-N^5-[2-(piperidin-1-yl)ethyl]-1H-imidazole-4,5-dicarboxamide], for which the IC50 was determined as 0.57 µM in experiment [1] (setting [2]) and 0.08 µM at TNKS1.

With `CNC(=O)c1nc[nH]c1C(=O)Nc1ccc(NC(=O)c2ccc(S(C)(=O)=O)cc2Cl)cc1` [Example 55, N^5-(4-{[2-chloro-4-(methylsulfonyl)benzoyl]amino}phenyl)-N^4-methyl-1H-imidazole-4,5-dicarboxamide], the values for the IC50 (in experiment [1] (setting [2]); at TNKS1) were 0.27 µM and 0.12 µM, respectively.

On to `C[C@@H]1CCCN(CCNC(=O)c2[nH]cnc2C(=O)Nc2ccc(NC(=O)c3ccc(F)cc3Cl)cc2)C1` [Example 278, N^4-{4-[(2-chloro-4-fluorobenzoyl)amino]phenyl}-N^5-{2-[(3R)-3-methylpiperidin-1-yl]ethyl}-1H-imidazole-4,5-dicarboxamide], for which the IC50 in experiment [1] (setting [2]) was determined as 0.09 µM; against TNKS1, 0.005 µM.

Regarding `CCN(CC)CCCCNC(=O)c1nc[nH]c1C(=O)Nc1ccc(NC(=O)c2ccc(F)cc2Cl)cc1` [Example 393, N^5-{4-[(2-chloro-4-fluorobenzoyl)amino]phenyl}-N^4-[4-(diethylamino)butyl]-1H-imidazole-4,5-dicarboxamide], the IC50 in experiment [1] (setting [2]) was 0.88 µM; on TNKS1 it was 0.3 µM.

For `CN1CCCC(CNC(=O)c2[nH]cnc2C(=O)Nc2ccc(NC(=O)c3ccc(F)cc3Cl)cc2)C1` (stereo not shown) [Example 298, N^4-{4-[(2-chloro-4-fluorobenzoyl)amino]phenyl}-N^5-[(1-methylpiperidin-3-yl)methyl]-1H-imidazole-4,5-dicarboxamide], the IC50 in experiment [1] (setting [2]) was determined as 0.3 µM; against TNKS1, 0.04 µM.

Consider `O=C(Nc1ccc(NC(=O)c2nc[nH]c2C(=O)NCCN2CCC(F)(F)C2)cc1)c1ccc(F)cc1Cl` [Example 279, N^4-{4-[(2-chloro-4-fluorobenzoyl)amino]phenyl}-N^5-[2-(3,3-difluoropyrrolidin-1-yl)ethyl]-1H-imidazole-4,5-dicarboxamide], for which the IC50 was 0.91 µM in experiment [1] (setting [2]) and 0.02 µM at TNKS1.

For `O=C(Nc1ccc(NC(=O)c2[nH]cnc2C(=O)NCCC2CCCC2)cc1)c1cc(F)c(F)cc1Cl` [Example 48, N^5-{4-[(2-chloro-4,5-difluorobenzoyl)amino]phenyl}-N^4-(2-cyclopentylethyl)-1H-imidazole-4,5-dicarboxamide], the IC50 in experiment [1] (setting [2]) was 2.65 µM; against TNKS1, greater than 10 µM.

Regarding `CN1CCN(CC(C)(C)CNC(=O)c2nc[nH]c2C(=O)Nc2ccc(NC(=O)c3ccc(F)cc3Cl)cc2)CC1` [Example 415, N^5-{4-[(2-chloro-4-fluorobenzoyl)amino]phenyl}-N^4-[2,2-dimethyl-3-(4-methylpiperazin-1-yl)propyl]-1H-imidazole-4,5-dicarboxamide], the IC50 is 0.56 µM in experiment [1] (setting [2]) and 0.07 µM against TNKS1.

Take `O=C(Nc1ccc(NC(=O)c2[nH]cnc2C(=O)NCCN2CCCCC2)cc1)c1ccc(F)cc1I` [Example 62, N^5-{4-[(4-fluoro-2-iodobenzoyl)amino]phenyl}-N^4-[2-(piperidin-1-yl)ethyl]-1H-imidazole-4,5-dicarboxamide]: the 50% inhibitory concentration (IC50) turned out to be 0.01 µM in experiment [1] (setting [2]) and 0.84 µM at TNKS1.

For the molecule `O=C(Nc1ccc(NC(=O)c2[nH]cnc2C(=O)N2CCOCC2)cc1)c1ccc(F)cc1Cl` [Example 29, N-{4-[(2-chloro-4-fluorobenzoyl)amino]phenyl}-5-(morpholin-4-ylcarbonyl)-1H-imidazole-4-carboxamide], the IC50 in experiment [1] (setting [2]) was 3.93 µM; in experiment [1] (HEK293 TOP reporter cells, Wnt3a at EC50, 16 hours, luciferase), 3.92 µM; against TNKS1, 2.1 µM.

As to `CNC(=O)c1nc[nH]c1C(=O)Nc1ccc(NC(=O)c2ccon2)cc1` [Example 376, N^4-methyl-N^5-{4-[(1,2-oxazol-3-ylcarbonyl)amino]phenyl}-1H-imidazole-4,5-dicarboxamide], the IC50 is 50 µM in experiment [1] (setting [2]) and greater than 10 µM against TNKS1.

In the case of `CNC(=O)c1nc[nH]c1C(=O)Nc1ccc(NC(=O)c2c(F)cc(F)cc2F)cc1` [Example 342, N^4-methyl-N^5-{4-[(2,4,6-trifluorobenzoyl)amino]phenyl}-1H-imidazole-4,5-dicarboxamide], the IC50 in experiment [1] (setting [2]) turned out to be 0.8 µM; against TNKS1 it was 0.64 µM.

As to `CNC(=O)c1nc[nH]c1C(=O)Nc1ccc(NC(=O)c2cc(C#N)ccc2F)cc1` [Example 349, N^5-{4-[(5-cyano-2-fluorobenzoyl)amino]phenyl}-N^4-methyl-1H-imidazole-4,5-dicarboxamide], the IC50 in experiment [1] (setting [2]) is 0.72 µM; against TNKS1, 2.7 µM.

In the case of `CNC(=O)c1nc[nH]c1C(=O)Nc1ccc(NC(=O)c2ccccc2OC)cc1` [Example 60, N^5-{4-[(2-methoxybenzoyl)amino]phenyl}-N^4-methyl-1H-imidazole-4,5-dicarboxamide], the 50% inhibitory concentration (IC50) was 15.5 µM in experiment [1] (setting [2]) and greater than 10 µM against TNKS1.

Regarding `CC(C)N(CCNC(=O)c1nc[nH]c1C(=O)Nc1ccc(NC(=O)c2ccc(F)cc2Cl)cc1)C(C)C` [Example 389, N^5-{4-[(2-chloro-4-fluorobenzoyl)amino]phenyl}-N^4-{2-[di(propan-2-yl)amino]ethyl}-1H-imidazole-4,5-dicarboxamide], the IC50 turned out to be 0.75 µM in experiment [1] (setting [2]) and 0.15 µM at TNKS1.

The term IC50 denotes the concentration needed to halve the response being measured.
